Reference: patent US20230159527A1, “COMPOUNDS AS BCL-2 INHIBITORS” (Fochon Pharmaceuticals, Ltd., priority 2020, published 2023)
Read-outs that look alike come from different tables or passages of the source.

Assays:
Type in all cases: cell-based
Toledo cells = experiment: Cell proliferation assay, Toledo cells (MTS, 72 h); conditions: Toledo cells, MTS, read-out: Toledo IC50
Summary of the method: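 IC50 was derived from 490 nm absorbance after a 2 h MTS step. Before that, compounds at 1.5–10000 nM final (nine points) acted on Toledo cells for 72 h at 37 °C, 5% CO2. Cells were seeded at 30000/well in 10% FBS RPMI-1640 and rested 4 h before dosing.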

RS4;11-BCL-2 G101V cells = experiment: Cell proliferation assay, engineered RS4;11 cells stably overexpressing BCL-2 G101V (MTS, 168 h); conditions: read-out: RS4, 11 BCL2- G101V
Summary of the method: (§1)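 Proliferation read-out: MTS for exactly 2 h, then absorbance at 490 nm, with IC50 derived from the fit. Before this, engineered RS4;11 lines (BCL-2 G101V, F104L; 5000 cells/well) were exposed 168 h at 37 °C to serially diluted compound, final 1.4–10000 nM.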

RS4;11-BCL-2 F104L cells = experiment: Cell proliferation assay, engineered RS4;11 cells stably overexpressing BCL-2 F104L (MTS, 168 h); conditions: read-out: RS4, 11 BCL2-F104L
Summary of the method: as §1

Row | Compound | IC50 (RS4;11-BCL-2 G101V cells; Homo sapiens, RS4-11, 168 h) [nM] | IC50 (RS4;11-BCL-2 F104L cells; Homo sapiens) [nM] | IC50 (RS4;11-BCL-2 G101V cells) [nM] | IC50 (RS4;11-BCL-2 F104L cells) [nM] | IC50 (Toledo cells; Homo sapiens) [nM] | IC50 (Toledo cells) [nM]
1 | CCOc1nc2[nH]cc(F)c2cc1Oc1cc(N2CCC3(CC2)CC(N2CCC[C@H]2c2ccccc2C(C)C)C3)ccc1C(=O)NS(=O)(=O)c1cc2c(c([N+](=O)[O-])c1)N[C@@H]([C@H]1CC[C@](C)(O)CC1)CO2 (single isomer, unassigned) [Example D-85, 2-((6-ethoxy-3-fluoro-1H-pyrrolo [2,3-b]pyridin-5-yl)oxy)-N-(((S)-3-((1r,4S)-4-hydroxy-4-methylcyclohexyl)-5-nitro-3,4-dihydro-2H-benzo[b][1,4]oxazin-7-yl)sulfonyl)-4-(2-((R or S)-2-(2-isopropylphenyl)pyrrolidin-1-yl)-7-azaspiro[3.5]nonan-7-yl)benzamide] | 28 | 5 | – | – | 1 | –
2 | CC(C)c1ccccc1[C@@H]1CCC[C@@H]1N1CC2(CCN(c3ccc(C(=O)NS(=O)(=O)c4ccc(NC[C@H]5CC[C@](C)(O)CC5)c([N+](=O)[O-])c4)c(Oc4cc5c(F)c[nH]c5nc4F)c3)CC2)C1 (single isomer, unassigned) [Example D-90, 2-((3,6-difluoro-1H-pyrrolo[2,3-b]pyridin-5-yl)oxy)-N-((4-((1r,4r)-4-hydroxy-4-methylcyclohexyl)methyl)amino)-3-nitrophenyl) sulfonyl)-4-(2-((1S,2S or 1R,2R)-2-(2-isopropylphenyl) cyclopentyl)-2,7-diazaspiro[3.5] nonan-7-yl)benzamide] | 5 | 1 | – | – | 1 | –
3 | 2-((3-fluoro-6-methoxy-1H-pyrrolo [2,3-b]pyridin-5-yl)oxy)-N-(((S)- 3-((1r,4S)-4-hydroxy-4- methylcyclohexyl)- 5-nitro-3,4-dihydro- 2H-benzo[b][1,4]oxazin-7-yl) sulfonyl)-4-(2-((1S,2S or 1R,2R)- 2-(2-isopropylphenyl) cyclopentyl)-2,7-diazaspiro[3.5] nonan-7-yl)benzamide [Example D-102] | – | – | 16 | 1 | – | 1
4 | CC(C)c1ccccc1[C@@H]1CCCN1C1CC2(CCN(c3ccc(C(=O)NS(=O)(=O)c4cc5c(c([N+](=O)[O-])c4)N[C@@H]([C@H]4CC[C@](C)(O)CC4)CO5)c(Oc4cc5cc[nH]c5nc4OC[C@H]4COCCN4)c3)CC2)C1 (single isomer, unassigned) [Example D-216, N-(((S)-3-((1r,4S)-4-hydroxy-4-methylcyclohexyl)-5-nitro-3,4-dihydro-2H-benzo[b][1,4]oxazin-7-yl)sulfonyl)-4-(2-((R or S)-2-(2-isopropylphenyl)pyrrolidin-1-yl)-7-azaspiro[3.5]nonan-7-yl)-2-((6-(((R)-morpholin-3-yl)methoxy)-1H-pyrrolo[2,3-b]pyridin-5-yl)oxy)benzamide] | 1 | 1 | – | – | 1 | –
5 | CC(C)c1ccccc1[C@@H]1CCC[C@@H]1N1CC2(CCN(c3ccc(C(=O)NS(=O)(=O)c4ccc(NC[C@H]5CC[C@](C)(O)CC5)c([N+](=O)[O-])c4)c(Oc4cc5c(F)c[nH]c5nc4Cl)c3)CC2)C1 (single isomer, unassigned) [Example D-113, 2-((6-chloro-3-fluoro-1H-pyrrolo [2,3-b]pyridin-5-yl)oxy)-N-((4-((((1r,4r)-4-hydroxy-4-methylcyclohexyl)methyl)amino)-3-nitrophenyl)sulfonyl)-4-(2-((1S,2S or 1R,2R)-2-(2-isopropylphenyl)cyclopentyl)-2,7-diazaspiro[3.5]nonan-7-yl)benzamide] | 19 | 1 | – | – | 1 | –
6 | CCOc1nc2[nH]cc(F)c2cc1Oc1cc(N2CCC3(CC2)CN([C@H]2CCC[C@H]2c2ccccc2C(C)C)C3)ccc1C(=O)NS(=O)(=O)c1cc2c(c([N+](=O)[O-])c1)N[C@@H]([C@H]1CC[C@](C)(O)CC1)CO2 (single isomer, unassigned) [Example D-103, 2-((6-ethoxy-3-fluoro-1H-pyrrolo [2,3-b]pyridin-5-yl)oxy)-N-(((S)-3-((1r,4S)-4-hydroxy-4-methylcyclohexyl)-5-nitro-3,4-dihydro-2H-benzo[b][1,4]oxazin-7-yl)sulfonyl)-4-(2-((1S,2S or 1R,2R)-2-(2-isopropylphenyl)cyclopentyl)-2,7-diazaspiro[3.5]nonan-7-yl)benzamide] | 1 | 1 | – | – | 1 | –
7 | CC(C)c1ccccc1[C@@H]1CCCN1C1CC2(CCN(c3ccc(C(=O)NS(=O)(=O)c4cc5c(c([N+](=O)[O-])c4)N[C@@H]([C@H]4CC[C@](C)(O)CC4)CO5)c(Oc4cc5cc[nH]c5nc4OC[C@@H]4COCCN4)c3)CC2)C1 (single isomer, unassigned) [Example D-214, N-(((S)-3-((1r,4S)-4-hydroxy-4-methylcyclohexyl)-5-nitro-3,4-dihydro-2H-benzo[b][1,4]oxazin-7-yl)sulfonyl)-4-(2-((R or S)-2-(2-isopropylphenyl)pyrrolidin-1-yl)-7-azaspiro[3.5]nonan-7-yl)-2-((6-(((S)-morpholin-3-yl)methoxy)-1H-pyrrolo[2,3-b]pyridin-5-yl)oxy)benzamide] | 1 | 1 | – | – | 1 | –

The remaining compounds from weak to strong by IC50 (RS4;11-BCL-2 G101V cells; Homo sapiens, RS4-11, 168 h), led by results:

Row | IC50 (RS4;11-BCL-2 G101V cells; Homo sapiens, RS4-11, 168 h) [nM] | IC50 (RS4;11-BCL-2 F104L cells; Homo sapiens) [nM] | IC50 (RS4;11-BCL-2 G101V cells) [nM] | IC50 (RS4;11-BCL-2 F104L cells) [nM] | Compound | IC50 (Toledo cells; Homo sapiens) [nM] | IC50 (Toledo cells) [nM]
8 | 1 | 25 | – | – | CC(C)c1ccccc1[C@@H]1CCCN1C1CC2(CCN(c3ccc(C(=O)NS(=O)(=O)c4cc5c(c([N+](=O)[O-])c4)N[C@@H]([C@H]4CC[C@](C)(O)CC4)CO5)c(Oc4cc5cc[nH]c5nc4F)c3)CC2)C1 (single isomer, unassigned) [Example D-64, 2-((6-fluoro-1H-pyrrolo[2,3-b]pyridin-5-yl)oxy)-N-(((S)-3-((1r,4S)-4-hydroxy-4-methylcyclohexyl)-5-nitro-3,4-dihydro-2H-benzo[b] [1,4]oxazin-7-yl)sulfonyl)-4-(2-((R or S)-2-(2-isopropylphenyl)pyrrolidin-1-yl)-7-azaspiro[3.5]nonan-7-yl)benzamide] | 1 | –
9 | 1 | 11 | – | – | CC(C)c1ccccc1[C@@H]1CCCN1C1CC2(CCN(c3ccc(C(=O)NS(=O)(=O)c4cc5c(c([N+](=O)[O-])c4)N[C@@H]([C@H]4CC[C@](C)(O)CC4)CO5)c(Oc4cc5cc[nH]c5nc4OC[C@H]4CCN4C)c3)CC2)C1 (single isomer, unassigned) [Example D-123, N-(((S)-3-((1r,4S)-4-hydroxy-4-methylcyclohexyl)-5-nitro-3,4-dihydro-2H-benzo[b][1,4]oxazin-7-yl)sulfonyl)-4-(2-((R or S)-2-(2-isopropylphenyl)pyrrolidin-1-yl)-7-azaspiro[3.5]nonan-7-yl)-2-((6-(((7)-1-methylazetidin-2-yl)methoxy)-1H-pyrrolo[2,3-b]pyridin-5-yl)oxy)benzamide] | 1 | –
10 | 1 | 1 | – | – | CC(C)c1ccccc1[C@@H]1CCCN1C1CC2(CCN(c3ccc(C(=O)NS(=O)(=O)c4cc5c(c([N+](=O)[O-])c4)N[C@@H]([C@H]4CC[C@](C)(O)CC4)CO5)c(Oc4cc5cc[nH]c5nc4O[C@@H]4C[C@@H](CO)N(C)C4)c3)CC2)C1 (single isomer, unassigned) [Example D-250, N-(((S)-3-((1r,4S)-4-hydroxy-4-methylcyclohexyl)-5-nitro-3,4-dihydro-2H-benzo[b][1,4]oxazin-7-yl)sulfonyl)-2-((6-(((3R,5S)-5-(hydroxymethyl)-1-methylpyrrolidin-3-yl)oxy)-1H-pyrrolo[2,3-b]pyridin-5-yl)oxy)-4-(2-((R or S)-2-(2-isopropylphenyl)pyrrolidin-1-yl)-7-azaspiro[3.5]nonan-7-yl)benzamide] | 1 | –
11 | 1 | 1 | – | – | CC(C)c1ccccc1[C@@H]1CCCN1C1CC2(CCN(c3ccc(C(=O)NS(=O)(=O)c4cc5c(c([N+](=O)[O-])c4)N[C@@H]([C@H]4CC[C@](C)(O)CC4)CO5)c(Oc4cc5cc[nH]c5nc4O[C@@H]4CCN(C)C4)c3)CC2)C1 (single isomer, unassigned) [Example D-223, N-(((S)-3-((1r,4S)-4-hydroxy-4-methylcyclohexyl)-5-nitro-3,4-dihydro-2H-benzo[b][1,4]oxazin-7-yl)sulfonyl)-4-(2-((R or S)-2-(2-isopropylphenyl)pyrrolidin-1-yl)-7-azaspiro[3.5]nonan-7-yl)-2-((6-(((R)-1-methylpyrrolidin-3-yl)oxy)-1H-pyrrolo[2,3-b]pyridin-5-yl)oxy)benzamide] | 1 | –
12 | 1 | 1 | – | – | CC(C)c1ccccc1[C@@H]1CCCN1C1CC2(CCN(c3ccc(C(=O)NS(=O)(=O)c4cc5c(c([N+](=O)[O-])c4)N[C@@H]([C@H]4CC[C@](C)(O)CC4)CO5)c(Oc4cc5cc[nH]c5nc4OCCN(C)C)c3)CC2)C1 (single isomer, unassigned) [Example D-60, 2-((6-(2-(dimethylamino)ethoxy)-1H-pyrrolo[2,3-b]pyridin-5-yl)oxy)-N-(((S)-3-((1r,4S)-4-hydroxy-4-methylcyclohexyl)-5-nitro-3,4-dihydro-2H-benzo[b][1,4]oxazin-7-yl)sulfonyl)-4-(2-((R or S)-2-(2-isopropylphenyl)pyrrolidin-1-yl)-7-azaspiro[3.5]nonan-7-yl)benzamide] | 1 | –
